Here are results for 1 substance from patent publication US7384916B2, “Methods and compositions for preventing and treating aging or photodamaged skin” (ProCyte Corporation, priority 2005, dated 2008).

Common to all, as to assay type: cell-based
In experiment [1] the test system is Normal human dermal fibroblasts. Put plainly: Viability of dermal fibroblasts (neutral red stain). The note with it: for Neutral Red Stain - Cell Viability: 3 days, control 212. Here is the method:
(§1) The effect of peptide manganese complexes on the growth and viability of fibroblasts was determined. Normal human dermal fibroblasts were seeded into a 96-well cell culture plate and grown to confluence in high glucose media supplemented with 10% fetal calf serum for 3 days. The fibroblasts were then placed in low glucose media with 2% serum and various amounts of a representative peptide manganese complex. After 3 days, the cells were incubated with neutral red to assess their viability and stained with sulforhodamin B and counted to determine the number of cells.

Experiment [2] has the same test system. Put plainly: Stimulation of collagen type I formation in fibroblasts (sandwich ELISA of culture media). The note with it: for ELISA Collagen Type I / ELISA Collagen Type I (% Increase): 3 days; for ELISA Collagen Type I: low glucose media with 2% serum, control 48; for ELISA Collagen Type I (% Increase): vs 0 ug/ml control. Here is the method:
The effect of peptide manganese complexes on collagen formation was determined by determining the amount of collagen type I produced by human fibroblasts in cell culture. Normal human dermal fibroblasts were seeded into a 96-well cell culture plate and grown to confluence in high glucose media supplemented with 10% fetal calf serum for 3 days. The fibroblasts were then placed in low glucose media with 2% serum and various amounts of a representative peptide manganese complex. After 3 days, the culture media was collected and analyzed for collagen type I content by a sandwich ELISA assay using purified antibody to collagen type I.
In general terms: An ELISA detects its analyte on a solid surface through an enzyme-linked reagent.

Experiment [3] has the same test system. As to the kind of experiment: Proliferation of dermal fibroblasts (sulforhodamin B stain, cell number). The note with it: for Sulforhodamin B Stain - Cell Number / Sulforhodamin B Stain - Cell Number (% Increase): 3 days; for Sulforhodamin B Stain - Cell Number: control 313; for Sulforhodamin B Stain - Cell Number (% Increase): vs 0 ug/ml control. The protocol:
as §1

“glycyl-L-histidyl-L-lysine:manganese(II)”: the results for the “Neutral Red Stain - Cell Viability” value in experiment [1] (10 ug/ml complex) and in experiment [1] (100 ug/ml complex) were 231 and 253, respectively. In addition, in experiment [1] (summary of Table 6), the “Effect on viability of normal human dermal fibroblasts (in words)” value was “increased their viability”. The “ELISA Collagen Type I” value was 61.5 in experiment [2] (10 ug/ml complex) and 102.5 in experiment [2] (100 ug/ml complex). The entries for the “ELISA Collagen Type I (% Increase)” value in experiment [2] (10 ug/ml complex) and in experiment [2] (100 ug/ml complex) were “+28%” and “+129%”, respectively. Further, the “Effect on formation of collagen type I (in words)” value in experiment [2] (summary of Table 4) is recorded as “stimulated the formation of collagen type I”. The entries for the “Sulforhodamin B Stain - Cell Number” value in experiment [3] (10 ug/ml complex) and in experiment [3] (100 ug/ml complex) were 383 and 535, respectively. Moreover, the “Sulforhodamin B Stain - Cell Number (% Increase)” value in experiment [3] (10 ug/ml complex) is “+22%”; in experiment [3] (100 ug/ml complex), “+71%”. For the same substance, in experiment [3] (summary of Table 5), the “Effect on proliferation of normal human dermal fibroblasts (in words)” value was “stimulated the proliferation”.
